Article PMC6759604 (Frontiers in Microbiology, 2019)

Tests used:
[1] = molecular target: Vp HqsK (VP1876 HK; H-NOX-associated quorum sensing kinase) (Vibrio parahaemolyticus, UniProt Q87NJ2); details: 250 μM OMFP, pH 8.0, room temperature
[2] = molecular target: Vibrio parahaemolyticus HqsK (VP1876) D499A (Vibrio parahaemolyticus) (UniProt Q87NJ2)

Compound | phosphatase assay, O-methylfluorescein release at 450 nm [1] | inhibition of HqsK autophosphorylation ([gamma-32P]-ATP, SDS-PAGE, autoradiography) by Fe(II)-NO H-NOX; 69.4 uM H-NOX, 5.3 uM HqsK D499A, purified proteins, room temperature, anaerobic [2]
COc1ccc2c(c1)Oc1cc(OP(=O)(O)O)ccc1C21OC(=O)c2ccccc21 (centres unmarked) [3-O-methyl fluorescein phosphate] | Wild-type HqsK displays increasing OMF fluorescence over time, indicating Vp HqsK has phosphatase activity | 
Vibrio parahaemolyticus H-NOX (VP1877) (from UniProt Q87NJ1 1-179) (natural protein) |  | 75%
